Reference: patent US20260242390A1, “TOTAL SYNTHESES OF PORTIMINE A AND ANALOGUES THEREOF AS SMALL MOLECULE MODULATORS OF NMD3” (priority 2023, published 2026)
Entries after “also recorded” stand apart in the source; their conditions may differ.

Molecular target: T1, NMD3 (Homo sapiens, UniProt Q96D46)
T1 construct: endogenous in cells
T1 sequence (Q96D46 1-503): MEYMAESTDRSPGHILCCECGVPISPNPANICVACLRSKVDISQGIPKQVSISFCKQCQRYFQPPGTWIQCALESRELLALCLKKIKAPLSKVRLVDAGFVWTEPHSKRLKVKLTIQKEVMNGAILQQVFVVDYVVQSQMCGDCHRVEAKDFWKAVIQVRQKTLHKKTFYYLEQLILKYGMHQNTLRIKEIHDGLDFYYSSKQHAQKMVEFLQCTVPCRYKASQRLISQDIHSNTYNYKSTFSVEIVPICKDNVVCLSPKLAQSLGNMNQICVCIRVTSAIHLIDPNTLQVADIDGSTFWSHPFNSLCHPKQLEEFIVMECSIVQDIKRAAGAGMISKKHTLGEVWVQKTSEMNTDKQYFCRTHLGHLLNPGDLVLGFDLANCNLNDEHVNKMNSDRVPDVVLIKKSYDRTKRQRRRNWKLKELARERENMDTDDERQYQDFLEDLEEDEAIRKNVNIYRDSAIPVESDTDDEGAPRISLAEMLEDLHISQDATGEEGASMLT
Assay: Chemo-precipitation / photoaffinity labeling of NMD3
Type: binding
Details: for labeling of endogenous NMD3 by probe / competition of PA-DA labeling of endogenous NMD3: Jurkat and HCC1806 cells; for labeling of endogenous NMD3 by probe: probe 0.5 uM, UV irradiated; for competition of PA-DA labeling of endogenous NMD3: PA-DA 0.5 uM, competitor 5 uM
Method: FIG. 4. Validation of NMD3 as target of Portimine A by Chemo-precipitation (ChP). Portimine A mouse pharmacokinetic properties and fast acting in vitro cell-based target engagement properties based on compound wash-out. (A) Pharmacokinetic studies of mouse intraperitoneal (i.p.) and oral (p.o.) administration for portimine (n=3). […] Impact of PA [0.3 or 1 mg/kg intraperitoneally] on MC38 tumor growth in WT mice (n=6). (C) Kaplan-Myer survival curve of WT MC38 tumor-bearing mice (n=6) after treatment with PA as described in (D). Mice were euthanized when tumor area exceeded 2000 mm^3. Statistical analysis was performed using ANOVA analysis followed by multiple comparisons test, * p≤0.05. Treatment condition: Jurkat (60 M per condition); PA-DA/ePA-DA concentration: 0.5 uM, PA or ePA: 5 uM; Incubate with probe with or without competitors (PA, ePA) for 30 min; UV irradiated for 20 min. (0.5 uM PA-DA add a no-UV condition); Standard pulldown & biotin-enrichment and western blot analysis (Elute condition: 2× sample buffer+500 uM biotin, boil for 20 mins); Primary antibody NMD3 (ProteinTech, 1:150), Actin (BioRad, 1:10000).
FIG. 5. […] (I, J) Confirmation of PA-DA engagement of NMD3 in Jurkat and HCC1806 cells. […] Treatment condition: Jurkat (5M per well). Portimine A concentration: 2 nM-1000 nM; In total treat cell for 12 hours.
• 1) Portimine A and its functional analogs show stereo-selective acute toxicity in cancer cells (FIG. 1). […] (B) Structure of portimine related analogs: phenyl-portimine A (Ph-PA, 36) and epi-portimine A (ePA, 38). Structure of fully functionalized portimine A-based epimeric probe pair: portimine A-diazirine-alkyne (PA-DA, 35-2) and epi-portimine A-diazirine-alkyne (ePA-DA, 35-1). (C) Cell viability analysis of portimine A and analogs. Jurkat cells were treated with increasing concentrations of portimine A and analogs for 24 hours. All presented data as mean of biological replicated experiments (n=3). […] Jurkat cells were treated with portimine A or analogs for 12 hours at 10 nM. […] Structurally related negative control ePA and PB are non-toxic in all cell types in the current concentrate range. PBMCs (25k per well), Jurkat (10k per well). […] Cell cycle analysis in Jurkat cells (FIG. 2). Jurkat cells were treated with 10 nM of indicated compounds for 24 hours, and propodium iodide was used to identify different stages of cells by flow cytometry. […] (A) PA and Ph-PA show less toxic to healthy PBMCs compared to Jurkat cells. […] (B) Immunoblot of caspase-3 in Jurkat and PBMCs with indicated conditions. […] (A) Pharmacokinetic studies of mouse intraperitoneal (i.p.) and oral (p.o.) administration for portimine (n=3). […] Impact of PA [0.3 or 1 mg/kg intraperitoneally] on MC38 tumor growth in WT mice (n=6). (C) Kaplan-Myer survival curve of WT MC38 tumor-bearing mice (n=6) after treatment with PA as described in (D). Mice were euthanized when tumor area exceeded 2000 mm^3. Statistical analysis was performed using ANOVA analysis followed by multiple comparisons test, * p≤0.05. Treatment condition: Jurkat (60 M per condition); PA-DA/ePA-DA concentration: 0.5 uM, PA or ePA: 5 uM; Incubate with probe with or without competitors (PA, ePA) for 30 min; UV irradiated for 20 min. (0.5 uM PA-DA add a no-UV condition), Standard pulldown & biotin-enrichment and western blot analysis (Elute condition: 2× sample buffer+500 uM biotin, boil for 20 mins); Primary antibody NMD3 (ProteinTech, 1:150), Actin (BioRad, 1:10000). […] Chemical proteomic profiling with PA-DA in Jurkat cells (A, B, C, G) and HCC1806 cells (D, E, F, H) show NMD3 is the primary target candidate of portimine A. Volcano plot in panels A and D show protein competition in cells treated with active photoaffinity probe PA-DA (500 nM) and DMSO or the active competitor portimine A (PA, […]), dotted lines indicate threshold of fold change <4, p-value>0.05. […] (I, J) Confirmation of PA-DA engagement of NMD3 in Jurkat and HCC1806 cells. […] Treatment condition: Jurkat (5M per well). […]

SMILES	binding to recombinantly overexpressed NMD3 in cells	labeling of endogenous NMD3 by probe	competition of PA-DA labeling of endogenous NMD3	binding to NMD3 (target validation) (endogenous NMD3, Jurkat, pulldown and western blot)	nature of the interaction with NMD3 (no-UV control)
C#CCCC1(CCNC(=O)c2ccc(C3=C[C@@H]4[C@@H]5O[C@]6(CC[C@H](O6)C(C)C[C@@H](O)C5=O)CC(O)C5=NCC[C@@]54CC3)cc2)N=N1 (stereo partly shown) [PA-DA, portimine A-diazirine-alkyne]	not observed	UV-dependent labeling	–	–	–
C=CC1=C[C@@H]2[C@@H]3O[C@]4(CC[C@H](O4)C(C)C[C@@H](O)C3=O)CC(O)C3=NCC[C@@]32CC1 (stereo partly shown) [PA, portimine A]	–	–	blocked	selectively binds; also recorded: confirmed as a target	non-covalent
C#CCCC1(CCNC(=O)c2ccc(C3=C[C@@H]4[C@@H]5O[C@]6(CC[C@H](O6)C(C)C[C@@H](O)C5=O)C[C@@H](O)C5=NCC[C@@]54CC3)cc2)N=N1 (stereo partly drawn) [ePA-DA, epi-portimine A-diazirine-alkyne]	–	not substantially labeled	–	–	–
C=CC1=C[C@@H]2[C@@H]3O[C@]4(CC[C@H](O4)C(C)C[C@@H](O)C3=O)C[C@@H](O)C3=NCC[C@@]32CC1 (stereo partly drawn) [ePA, epi-portimine A]	–	–	not	–	–
